Measurements: PMC12143354, “Determining sex differences in aortic valve myofibroblast responses to drug combinations identified using a digital medicine platform” (Science Advances, 2025)
Read-outs that look alike come from different tables or passages of the source.

How the values were obtained:
female VICs [1] = test: percent αSMA GMI reduction, female VICs on stiff hydrogels; assay type: cell-based, pig; conditions: for EC1 / EC2: from dose response curves; for Percent αSMA reduction, Average: n = 3-4 gels
Protocol: (§1) Glass-bottom 96-well plates (Cellvis) were placed in an autoclave jar with a scintillation vial containing 100 μl of mercaptopropyltrimethoxysilane (MPTS; Sigma-Aldrich). The autoclave jar was then lightly sealed and placed inside an oven at 60°C for a minimum of 6 hours. The autoclave jar was opened in a chemical fume hood, and the vapor-deposited well plate was stored for up to 2 hours until ready for use. Eight-arm 20-kDa PEG-norbornene (PEG-Nb) was formed as outlined previously ([76]). A 7% (w/v) PEG-Nb hydrogel precursor solution was formed by combining phosphate-buffered saline (PBS), 20-kDa PEG-Nb at a 0.98:1 thiol-to-ene ratio, 5-kDa PEG-dithiol (Jenkem), CRGDS cell binding motif (Bachem), and lithium phenyl-2,4,6-trimethyl-benzoylphosphinate (Thermo Fisher Scientific). An EPMotion 5073l automated liquid handling system (Eppendorf) was used to pipet 7 μl of the hydrogel precursor solution into the center of each well of the vapor-deposited 96-well glass-bottom plate. The well plate with the hydrogel precursor solution was then stamped using a custom 96-well plate stamp, inverted, and cured under ultraviolet light at 10 mW/cm^2 for 3 min to induce gelation. The stamp was carefully removed by hand, and the newly formed gels were sterilized with a solution of 5% isopropyl alcohol (Thermo Fisher Scientific) in PBS for 20 min. Gels were then washed twice with PBS and stored in VIC media composed of Media199 (Life Technologies), 1% fetal bovine serum (FBS, Life Technologies), amphotericin B (1 μg/ml; Thermo Fisher Scientific), penicillin (50 U/ml; Sigma-Aldrich), and streptomycin (50 μg/ml; Sigma-Aldrich). Last, the hydrogels were placed in an incubator at 37°C with 5% carbon dioxide for up to 24 hours until experimental use.
(§2) Media changes were performed every 24 to 48 hours until cells reached ~80% confluency. […] The media solution was then aspirated, and VICs were resuspended with 1 ml of 1% FBS media. VICs were counted with an automated hemocytometer to calculate the volume of cell solution to add to each well to seed at 6400 cells per well (20,000 cells/cm^2) for TCPS and hydrogel experiments. For all experiments, VICs were seeded with 1% FBS media containing the specified drug doses and incubated at 37°C with 5% carbon dioxide with media changes every 48 to 72 hours if needed.
(§3) Drug stock solutions were discarded after two thaw cycles or after 10 months of storage. For all experiments, drug dilutions were calculated and added to VIC media to ensure that total DMSO levels remained below 1% for cytotoxicity and αSMA reduction curve fitting experiments and below 0.3% for drug combination experiments.
(§4) After culture on hydrogels or TCPS, the spent drug-containing media were removed, and VICs were immersed in a 4% paraformaldehyde solution in PBS for 20 min and then permeabilized for 1 hour with 0.1% Triton X-100 (Thermo Fisher Scientific) in PBS. Cells were then blocked with 5% bovine serum albumin in PBS for 1 hour at room temperature or over the weekend at 4°C. […] Last, VICs were washed once with PBS and then stored in PBS at 4°C until imaging. Gel samples were imaged in situ using a Nikon Eclipse Ti2-E and analyzed using an automated MATLAB code to quantify the αSMA gradient mean intensities and caspase-3 intensities normalized to cell mask for each cell. A minimum of 100 cells were used per gel with multiple gels used per condition.
(§5) Curve fitting for VIC percent αSMA reduction and cytotoxicity was performed using GraphPad Prism 10 (GraphPad Software Inc). For each inhibitor, the nonlinear regression tool in Prism was used to estimate the response against the agonist by fitting the top, bottom, EC50/CC50, and hillslope to each dataset. After 2 days of culture, the percent αSMA reduction was calculated using the average αSMA gradient mean intensities of the control relative to the drug condition using Eq. 1 %αSMA reduction=100×(Control−Drug Condition/Control) (1)

female VICs [2] = test: percent αSMA GMI reduction, female VICs on soft hydrogels; assay type: cell-based, pig; conditions: n = 3 gels
Excerpt: (§6) Last, we tested the ability of […]-designed combinations to prevent myofibroblast activation in VICs cultured on other substrates beyond stiff hydrogels. […] Six male-optimized combinations were effective in preventing male VIC myofibroblast activation (Fig. 7K). […] Single-drug monotherapies used in the top male and female drug combinations were confirmed to have a minimal effect on male and female VIC αSMA GMI on soft hydrogels (table S14). […] After aspirating off the spent media, VICs were resuspended in 5 ml of fresh 15% FBS media and seeded on T25 Falcon tissue culture-treated flasks (Thermo Fisher Scientific). […] VICs were collected by aspirating off spent media, washing with PBS (Sigma-Aldrich) for 1 min, then incubating with 1× trypsin (Life Technologies) for 3 min. Trypsin was neutralized with an equal volume of 15% FBS growth media and centrifuged for 5 min at 0.2g. The media solution was then aspirated, and VICs were resuspended with 1 ml of 1% FBS media. VICs were counted with an automated hemocytometer to calculate the volume of cell solution to add to each well to seed at 6400 cells per well (20,000 cells/cm^2) for TCPS and hydrogel experiments. […] For each inhibitor, the nonlinear regression tool in Prism was used to estimate the response against the agonist by fitting the top, bottom, EC50/CC50, and hillslope to each dataset.

[3] = ref (79) Irosustat, (80) Losartan, cited from earlier work
female VICs [4] = tested on: female VICs
Protocol: as §4
(§7) Percent cytotoxicity was determined by designating each cell as alive or dead using caspase-3 intensity normalized to cell mask intensity, which was thresholded using a positive and negative control for cell death [10 nM staurosporine (Cell Signaling Technologies) or 1% FBS media]. The bottom value for every curve fit was set to 0, and the top value was constrained to a maximum of 100 to indicate the maximum possible effect of the drug. […] Absolute EC and CC values for % αSMA reduction and percent cytotoxicity were quantified using the top, bottom, EC50/CC50, and hillslope values estimated from the curve fits generated in GraphPad Prism (GraphPad Software Inc).

male VICs [5] = tested on: male VICs
Protocol: as §4, §7

male VICs [6] = test: percent αSMA GMI reduction by immunofluorescent staining, male VICs on TCPS; assay type: cell-based, pig; conditions: for reduction in αSMA GMI, initial screen: male VICs on TCPS, dosing range 10^-7 to 10^3 μM; for Percent αSMA reduction, Average: male VICs, single drug at L2 dose, n = 3 wells
Protocol: (§8) VICs were collected by aspirating off spent media, washing with PBS (Sigma-Aldrich) for 1 min, then incubating with 1× trypsin (Life Technologies) for 3 min. Trypsin was neutralized with an equal volume of 15% FBS growth media and centrifuged for 5 min at 0.2g. The media solution was then aspirated, and VICs were resuspended with 1 ml of 1% FBS media. VICs were counted with an automated hemocytometer to calculate the volume of cell solution to add to each well to seed at 6400 cells per well (20,000 cells/cm^2) for TCPS and hydrogel experiments. […] For each inhibitor, the nonlinear regression tool in Prism was used to estimate the response against the agonist by fitting the top, bottom, EC50/CC50, and hillslope to each dataset.

male VICs [7] = test: percent αSMA GMI reduction, male VICs on soft hydrogels; assay type: cell-based, pig; conditions: single drug at L2 dose, n = 3 gels
Excerpt: as §6

male VICs [8] = test: percent αSMA GMI reduction, male VICs on stiff hydrogels; assay type: cell-based, pig; conditions: for EC1 / EC2 / Percent αSMA reduction, Average: male VICs; for EC1 / EC2: from dose response curves; for Percent αSMA reduction, Average: n = 3-4 gels
Protocol: as §1, §2, §3, §4, §5

female VICs [9] = test: percent αSMA GMI reduction by immunofluorescent staining, female VICs on TCPS; assay type: cell-based, pig; conditions: for reduction in αSMA GMI, initial screen: female VICs on TCPS, dosing range 10^-7 to 10^3 μM; for Percent αSMA reduction, Average: female VICs, TCPS, n = 3 wells
Protocol: as §8

[10] = female VICs on stiff gels, n = 3 gels
[11] = female VICs, stiff hydrogels, from dose response curves
[12] = male VICs on stiff gels, n = 3 gels
[13] = male VICs, stiff hydrogels, from dose response curves

Row | SMILES | EC1 (female VICs [1]) [µM] | EC2 (female VICs [1]) [µM] | Percent αSMA reduction, Average (female VICs [1]; single drug at level 1 dose) [%] | Percent αSMA reduction, Average (female VICs [1]; single drug at level 2 dose) [%] | CC25 (percent cytotoxicity) (female VICs [4]; [10]) [µM] | CC1 (female VICs [4]; [11]) [µM] | CC2 (female VICs [4]; [11]) [µM] | CC25 (percent cytotoxicity) (male VICs [5]; [12]) [µM] | CC1 (male VICs [5]; [13]) [µM] | CC2 (male VICs [5]; [13]) [µM] | reduction in αSMA GMI, initial screen (male VICs [6]) [%] | Percent αSMA reduction, Average (male VICs [6]; TCPS) [%] | Percent αSMA reduction, Average (male VICs [7]) [%] | EC1 (male VICs [8]) [µM] | EC2 (male VICs [8]) [µM] | Percent αSMA reduction, Average (male VICs [8]; single drug at level 1 dose) [%] | Percent αSMA reduction, Average (male VICs [8]; single drug at level 2 dose) [%] | reduction in αSMA GMI, initial screen (female VICs [9]) [%] | Percent αSMA reduction, Average (female VICs [2]; single drug at L2 dose) [%] | Percent αSMA reduction, Average (female VICs [9]; single drug at L2 dose) [%] | other results
1 | NS(=O)(=O)Oc1ccc2c3c(c(=O)oc2c1)CCCCC3 [Irosustat] | 74.4 | 84.7 | 9.62 | -0.55 | 109 | 50.2 | 57.9 | 125 | 48.5 | 58.7 | > 25 | -1.15 | -10.38 | 92.6 | 106.3 | 0.84 | 0.67 | > 25 | – | – | Percent αSMA reduction, Average (female VICs [2]; single drug at L1 dose): 4.80%; Cmax ([3]; read-out: 5% Cmax, 5% of Cmax from FDA documents and clinical studies): 10.6 nM; Cmax ([3]; read-out: 10% Cmax, 10% of Cmax from FDA documents and clinical studies): 21.2 nM; Percent αSMA reduction, Average (female VICs [9]; single drug at L1 dose): 1.88%
2 | CCCCc1nc(Cl)c(CO)n1Cc1ccc(-c2ccccc2-c2nn[nH]n2)cc1 [Losartan] | 154 | 219 | 7.00 | 2.37 | – | – | – | – | – | – | > 25 | -1.33 | 0.81 | 18.7 | 32.9 | 5.58 | 0.99 | > 25 | 2.73 | 1.39 | CC1 (female VICs [4]; female, pig): 11.1 µM; CC2 (female VICs [4]; female, pig): 27 µM; CC25 (percent cytotoxicity) (female VICs [4]; female, pig): 927 µM; CC1 (male VICs [5]; male, pig): 378 µM; CC2 (male VICs [5]; male, pig): 470 µM; CC25 (percent cytotoxicity) (male VICs [5]; male, pig): 1,123 uM; sex difference in efficacy (male versus female EC20) (male VICs [6]; TCPS, unpaired two-tailed t test, P < 0.05): significantly more effective in male VICs relative to female VICs; sex difference in efficacy (male versus female EC20) (male VICs [8]; unpaired two-tailed t test, P < 0.05): reducing αSMA GMI more in male VICs relative to female VICs
3 | Fc1ccc(Cl)cc1-c1nc(Nc2ccncc2)c2nccnc2n1 [SD-208] | 0.0061 | 0.0275 | 4.19 | 8.81 | 70.1 | 34.8 | 40.1 | 58.9 | 26.6 | 31.1 | > 25 | 7.80 | 5.58 | 0.0582 | 0.188 | 14.60 | 0.63 | > 25 | 9.37 | 3.05 | –
4 | O=C(COCC(=O)Nc1ccc(Cl)cc1C(=O)O)Nc1cccc(-c2ccoc2)c1 [TM5441] | 24.8 | 33.6 | 1.52 | -7.64 | 191 | 19.7 | 31.1 | 51.3 | 18.9 | 21.9 | > 25 | 18.36 | 13.16 | 4.96 | 9.3 | -1.46 | 2.18 | > 25 | 17.16 | 8.37 | –
